Converted amounts (≈) assume the structure as drawn.
Columns and labels:
E. faecalis VSE 1 = assay: MIC, broth microdilution, vancomycin-sensitive E. faecalis (VSE 1); format: cell-based, Enterococcus faecalis; conditions: for MIC: Enterococcus faecalis VSE 1 (vancomycin-sensitive), read-out: MIC; for MIC-fold improvement vs. vancomycin: VSE 1, ratio of MIC of vancomycin and MIC of analogue
Outline: (§1)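 Broth microdilution per CLSI; controls = ultrapure water, non-inoculated broth. One set: + vancomycin 10 μM final alongside test analogue/control drug.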

E. faecalis VRE 6 = assay: MIC, broth microdilution, vancomycin-resistant E. faecalis VRE 6 (VanA); format: cell-based, Enterococcus faecalis; conditions: for MIC: Enterococcus faecalis VRE 6 (vancomycin-resistant), read-out: MIC; for MIC-fold improvement vs. vancomycin: VRE 6, ratio of MIC of vancomycin and MIC of analogue
Outline: as §1

E. faecalis VRE 53 = assay: MIC, broth microdilution, vancomycin-resistant E. faecalis VRE 53 (VanA); format: cell-based, Enterococcus faecalis; conditions: for MIC: Enterococcus faecalis VRE 53 (vancomycin-resistant), read-out: MIC; for MIC-fold improvement vs. vancomycin: VRE 53, ratio of MIC of vancomycin and MIC of analogue
Outline: as §1

E. faecalis VRE 29 = assay: MIC, broth microdilution, vancomycin-resistant E. faecalis VRE 29 (VanA); format: cell-based, Enterococcus faecalis; conditions: for MIC: Enterococcus faecalis VRE 29 (vancomycin-resistant), read-out: MIC; for MIC-fold improvement vs. vancomycin: VRE 29, ratio of MIC of vancomycin and MIC of analogue
Outline: as §1

E. faecalis VRE 37 = assay: MIC, broth microdilution, vancomycin-resistant E. faecalis VRE 37 (VanA); format: cell-based, Enterococcus faecalis; conditions: Enterococcus faecalis VRE 37 (vancomycin-resistant); read-out: MIC
Outline: as §1

[1] = test system: Murine leukemia (L1210) cells; assay: Cytostatic activity, L1210 cell proliferation; format: cell-based; conditions: mean ± SD of three experiments; highest concentration tested 250 µM; 2 days; read-out: Toxicity (IC50) L1210
Outline: (§2)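 Suspensions (300,000–500,000 cells/mL) combined with equal volumes of diluted compound; 37°C; L1210 2 d / CEM 3 d / HeLa 4 d; counted by Coulter counter; IC50 vs untreated wells.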

[2] = test system: human T-lymphocyte (CEM) cells; assay: Cytostatic activity, CEM cell proliferation; format: cell-based; conditions: mean ± SD of three experiments; highest concentration tested 250 µM; 3 days; read-out: Toxicity (IC50) CEM
Outline: as §2

[3] = test system: human cervix carcinoma (HeLa) cells; assay: Cytostatic activity, HeLa cell proliferation; format: cell-based; conditions: mean ± SD of three experiments; highest concentration tested 250 µM; 4 days; read-out: Toxicity (IC50) HeLa
Outline: as §2

[4] = test system: L1210, CEM and HeLa cell lines; assay: Cytostatic activity, average or summary over L1210, CEM and HeLa; format: cell-based; conditions: average of L1210, CEM and HeLa; read-out: Toxicity (IC50) Average
Outline: as §2

[5] = test system: S. aureus VSSA (ATCC 6538); assay: MIC, broth microdilution, vancomycin-sensitive S. aureus (VSSA/MSSA, ATCC 6538); format: cell-based, Staphylococcus aureus; conditions: for MIC: Staphylococcus aureus VSSA, read-out: MIC; for MIC-fold improvement vs. vancomycin: VSSA, ratio of MIC of vancomycin and MIC of analogue
Outline: as §1

S. aureus VISA/HIP5827 = assay: MIC, broth microdilution, vancomycin-intermediate S. aureus VISA HIP5827; format: cell-based, Staphylococcus aureus; conditions: for MIC: Staphylococcus aureus VISA/HIP5827, read-out: MIC; for MIC-fold improvement vs. vancomycin: VISA/HIP5827, ratio of MIC of vancomycin and MIC of analogue
Outline: as §1

S. aureus VRSA = assay: MIC, broth microdilution, vancomycin-resistant S. aureus (VRSA); format: cell-based, Staphylococcus aureus; conditions: for MIC: Staphylococcus aureus VRSA, read-out: MIC; for MIC-fold improvement vs. vancomycin: VRSA, ratio of MIC of vancomycin and MIC of analogue
Outline: as §1

MRSA KS2 = assay: MIC, broth microdilution, MRSA KS2; format: cell-based, Staphylococcus aureus; conditions: for MIC-fold improvement vs. vancomycin: MRSA KS2, ratio of MIC of vancomycin and MIC of analogue; for MIC: Staphylococcus aureus MRSA KS2, read-out: MIC
Outline: as §1

MRSA KS6 = assay: MIC, broth microdilution, MRSA KS6; format: cell-based, Staphylococcus aureus; conditions: for MIC-fold improvement vs. vancomycin: MRSA KS6, ratio of MIC of vancomycin and MIC of analogue; for MIC: Staphylococcus aureus MRSA KS6, read-out: MIC
Outline: as §1

MRSA KS89 = assay: MIC, broth microdilution, MRSA KS89; format: cell-based, Staphylococcus aureus; conditions: for MIC-fold improvement vs. vancomycin: MRSA KS8, ratio of MIC of vancomycin and MIC of analogue; for MIC: Staphylococcus aureus MRSA KS8, read-out: MIC
Outline: as §1

MRSA KS1 = assay: MIC, broth microdilution, MRSA KS1; format: cell-based, Staphylococcus aureus; conditions: for MIC-fold improvement vs. vancomycin: MRSA KS1, ratio of MIC of vancomycin and MIC of analogue; for MIC: Staphylococcus aureus MRSA KS1, read-out: MIC
Outline: as §1

Row | SMILES | MIC (E. faecalis VSE 1) | MIC-fold improvement vs. vancomycin (E. faecalis VSE 1) | MIC (E. faecalis VRE 6) | MIC-fold improvement vs. vancomycin (E. faecalis VRE 6) | MIC (E. faecalis VRE 53) | MIC-fold improvement vs. vancomycin (E. faecalis VRE 53) | MIC (E. faecalis VRE 29) | MIC-fold improvement vs. vancomycin (E. faecalis VRE 29) | MIC (E. faecalis VRE 37) | IC50 [1] | IC50 [2] | IC50 [3] | IC50 [4] | MIC [5] | MIC-fold improvement vs. vancomycin [5] | MIC (S. aureus VISA/HIP5827) | MIC-fold improvement vs. vancomycin (S. aureus VISA/HIP5827) | MIC-fold improvement vs. vancomycin (S. aureus VRSA) | MIC-fold improvement vs. vancomycin (MRSA KS2) | MIC (MRSA KS2) | other results
1 | CCCCOc1ccc(C(=O)NCCCNC(=O)C2NC(=O)C3NC(=O)C(NC(=O)C4NC(=O)C(CC(N)=O)NC(=O)C(NC(=O)C(CC(C)C)NC)C(O)c5ccc(c(Cl)c5)Oc5cc4cc(c5OC4OC(CO)C(O)C(O)C4OC4CC(C)(N)C(O)C(C)O4)Oc4ccc(cc4Cl)C3O)c3ccc(O)c(c3)-c3c(O)cc(O)cc32)cc1 (centres unmarked) [Vanc-50] | 0.39 µM (≈ 0.656 µg/mL) | 4 | 6.25 µM (≈ 10.5 µg/mL) | 32 | 12.5 µM (≈ 21 µg/mL) | 32 | 12.5 µM (≈ 21 µg/mL) | 32 | 12.5 µM (≈ 21 µg/mL) | > 250 µM | 86 ± 2 µM | 96 ± 4 µM | 144 µM | 0.39 µM (≈ 0.656 µg/mL) | 2 | 0.78 µM (≈ 1.31 µg/mL) | 8 | 128 | 4 | 0.20 µM (≈ 0.336 µg/mL) | MIC (S. aureus VRSA): 0.78 µM (≈ 1.31 µg/mL); MIC-fold improvement vs. vancomycin (MRSA KS6): 2; MIC (MRSA KS6): 0.39 µM (≈ 0.656 µg/mL); MIC-fold improvement vs. vancomycin (MRSA KS89): 2; MIC (MRSA KS89): 0.39 µM (≈ 0.656 µg/mL); MIC-fold improvement vs. vancomycin (MRSA KS1): 4; MIC (MRSA KS1): 0.20 µM (≈ 0.336 µg/mL)
2 | CNC(CC(C)C)C(=O)NC1C(=O)NC(CC(N)=O)C(=O)NC2C(=O)NC3C(=O)NC(C(=O)NC(C(=O)NCCCNC(=O)c4cc5ccccc5s4)c4cc(O)cc(O)c4-c4cc3ccc4O)C(O)c3ccc(c(Cl)c3)Oc3cc2cc(c3OC2OC(CO)C(O)C(O)C2OC2CC(C)(N)C(O)C(C)O2)Oc2ccc(cc2Cl)C1O (centres unmarked) [Vanc-26] | 0.20 µM (≈ 0.333 µg/mL) | 8 | 3.13 µM (≈ 5.21 µg/mL) | 64 | 25 µM (≈ 41.6 µg/mL) | 16 | 6.25 µM (≈ 10.4 µg/mL) | 64 | 12.5 µM (≈ 20.8 µg/mL) | > 250 µM | > 250 µM | 42 ± 23 µM | 181 µM | 0.39 µM (≈ 0.65 µg/mL) | 2 | 0.39 µM (≈ 0.65 µg/mL) | 16 | 32 | 2 | 0.39 µM (≈ 0.65 µg/mL) | MIC-fold improvement vs. vancomycin (MRSA KS6): 2; MIC (MRSA KS6): 0.39 µM (≈ 0.65 µg/mL); MIC-fold improvement vs. vancomycin (MRSA KS89): 2; MIC (MRSA KS89): 0.39 µM (≈ 0.65 µg/mL); MIC-fold improvement vs. vancomycin (MRSA KS1): 2; MIC (MRSA KS1): 0.39 µM (≈ 0.65 µg/mL)
3 | CN[C@H](CC(C)C)C(=O)N[C@H]1C(=O)N[C@@H](CC(N)=O)C(=O)N[C@H]2C(=O)N[C@H]3C(=O)N[C@H](C(=O)N[C@H](C(=O)NCC(=O)Nc4cccc5ccccc45)c4cc(O)cc(O)c4-c4cc3ccc4O)[C@H](O)c3ccc(c(Cl)c3)Oc3cc2cc(c3O[C@@H]2O[C@H](CO)[C@@H](O)[C@H](O)[C@H]2O[C@H]2C[C@](C)(N)[C@H](O)[C@H](C)O2)Oc2ccc(cc2Cl)[C@H]1O [Vanc-41] | 0.39 µM (≈ 0.636 µg/mL) | 4 | 6.25 µM (≈ 10.2 µg/mL) | 32 | 25 µM (≈ 40.8 µg/mL) | 16 | 12.5 µM (≈ 20.4 µg/mL) | 32 | 12.5 µM (≈ 20.4 µg/mL) | > 250 µM | > 250 µM | > 250 µM | > 250 µM | 0.78 µM (≈ 1.27 µg/mL) | 1 | 1.56 µM (≈ 2.55 µg/mL) | 4 | 16 | 2 | 0.39 µM (≈ 0.636 µg/mL) | MIC (S. aureus VRSA): 6.25 µM (≈ 10.2 µg/mL); MIC-fold improvement vs. vancomycin (MRSA KS6): 2; MIC (MRSA KS6): 0.39 µM (≈ 0.636 µg/mL); MIC-fold improvement vs. vancomycin (MRSA KS89): 2; MIC (MRSA KS89): 0.39 µM (≈ 0.636 µg/mL); MIC-fold improvement vs. vancomycin (MRSA KS1): 2; MIC (MRSA KS1): 0.39 µM (≈ 0.636 µg/mL)
4 | CN[C@H](CC(C)C)C(=O)N[C@H]1C(=O)N[C@@H](CC(N)=O)C(=O)N[C@H]2C(=O)N[C@H]3C(=O)N[C@H](C(=O)N[C@H](C(=O)NCCNC(=O)/C=C/c4ccc(NS(=O)(=O)c5ccc(C)cc5)cc4)c4cc(O)cc(O)c4-c4cc3ccc4O)[C@H](O)c3ccc(c(Cl)c3)Oc3cc2cc(c3O[C@@H]2O[C@H](CO)[C@@H](O)[C@H](O)[C@H]2O[C@H]2C[C@](C)(N)[C@H](O)[C@H](C)O2)Oc2ccc(cc2Cl)[C@H]1O [Vanc-55] | 0.39 µM (≈ 0.698 µg/mL) | 4 | 6.25 µM (≈ 11.2 µg/mL) | 32 | 12.5 µM (≈ 22.4 µg/mL) | 32 | 12.5 µM (≈ 22.4 µg/mL) | 32 | 12.5 µM (≈ 22.4 µg/mL) | > 250 µM | ≥ 250 µM | 103 ± 10 µM | 201 µM | 0.78 µM (≈ 1.4 µg/mL) | 1 | 0.78 µM (≈ 1.4 µg/mL) | 8 | 256 | 4 | 0.20 µM (≈ 0.358 µg/mL) | MIC (S. aureus VRSA): 0.39 µM (≈ 0.698 µg/mL); MIC-fold improvement vs. vancomycin (MRSA KS6): 2; MIC (MRSA KS6): 0.39 µM (≈ 0.698 µg/mL); MIC-fold improvement vs. vancomycin (MRSA KS89): 2; MIC (MRSA KS89): 0.39 µM (≈ 0.698 µg/mL); MIC-fold improvement vs. vancomycin (MRSA KS1): 4; MIC (MRSA KS1): 0.20 µM (≈ 0.358 µg/mL)

Reference: PMC6001238, “Iterative Chemical Engineering of Vancomycin Leads to Novel Vancomycin Analogs With a High in Vitro Therapeutic Index” (Frontiers in Microbiology, 2018)
